Measurements taken from publication PMC4774911, “Biochemical Screening of Five Protein Kinases from Plasmodium falciparum against 14,000 Cell-Active Compounds” (PLoS ONE, 2016).
“And” between values parts separate entries of the source, which are not always exact repeats. Identical values can stand only once.

Tests used:
Assay in all cases: biochemical
Parameters in all cases: endogenous in cells; host or cells: K562 cell extract; species or system K562 (extract); replicate k of n = 2 (each experiment ID is one independent experiment; two experiment IDs per compound)
Details in all cases: read-out: KDapp
TYK2 = TYK2 (Homo sapiens, UniProt P29597)
Sequence of TYK2 (P29597 whole entry): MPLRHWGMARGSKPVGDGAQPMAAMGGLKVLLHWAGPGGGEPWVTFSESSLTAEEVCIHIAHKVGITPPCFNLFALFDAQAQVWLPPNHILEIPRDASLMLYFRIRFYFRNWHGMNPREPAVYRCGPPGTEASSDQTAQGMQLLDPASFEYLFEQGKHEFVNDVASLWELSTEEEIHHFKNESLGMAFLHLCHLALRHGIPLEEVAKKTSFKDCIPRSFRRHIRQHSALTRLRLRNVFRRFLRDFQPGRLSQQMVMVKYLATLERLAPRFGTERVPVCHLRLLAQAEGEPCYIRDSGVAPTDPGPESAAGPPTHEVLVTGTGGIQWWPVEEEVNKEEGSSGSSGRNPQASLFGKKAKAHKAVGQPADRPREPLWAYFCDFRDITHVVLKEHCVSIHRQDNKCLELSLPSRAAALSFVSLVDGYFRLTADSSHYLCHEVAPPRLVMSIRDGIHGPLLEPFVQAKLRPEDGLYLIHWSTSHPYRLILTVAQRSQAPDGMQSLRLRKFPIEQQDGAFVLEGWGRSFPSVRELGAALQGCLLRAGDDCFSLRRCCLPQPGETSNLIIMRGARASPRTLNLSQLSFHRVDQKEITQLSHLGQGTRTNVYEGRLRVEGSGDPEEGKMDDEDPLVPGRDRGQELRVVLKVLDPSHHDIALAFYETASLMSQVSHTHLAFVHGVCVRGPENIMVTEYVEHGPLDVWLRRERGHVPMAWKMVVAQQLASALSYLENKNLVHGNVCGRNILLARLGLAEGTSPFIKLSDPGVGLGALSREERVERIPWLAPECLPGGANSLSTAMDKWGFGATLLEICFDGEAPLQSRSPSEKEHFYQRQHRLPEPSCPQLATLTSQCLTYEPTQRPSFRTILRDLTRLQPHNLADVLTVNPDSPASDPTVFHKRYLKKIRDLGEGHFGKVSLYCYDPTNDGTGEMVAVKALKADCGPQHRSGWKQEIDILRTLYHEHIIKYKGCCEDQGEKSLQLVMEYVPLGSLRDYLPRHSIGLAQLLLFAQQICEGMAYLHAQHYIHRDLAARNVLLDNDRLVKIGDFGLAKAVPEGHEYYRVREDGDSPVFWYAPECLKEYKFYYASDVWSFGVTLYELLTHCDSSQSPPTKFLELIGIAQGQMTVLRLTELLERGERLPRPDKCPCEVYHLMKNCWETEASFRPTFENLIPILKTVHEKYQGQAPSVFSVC

JAK1 = JAK1 (Homo sapiens, UniProt P23458)
Sequence of JAK1 (P23458 whole entry): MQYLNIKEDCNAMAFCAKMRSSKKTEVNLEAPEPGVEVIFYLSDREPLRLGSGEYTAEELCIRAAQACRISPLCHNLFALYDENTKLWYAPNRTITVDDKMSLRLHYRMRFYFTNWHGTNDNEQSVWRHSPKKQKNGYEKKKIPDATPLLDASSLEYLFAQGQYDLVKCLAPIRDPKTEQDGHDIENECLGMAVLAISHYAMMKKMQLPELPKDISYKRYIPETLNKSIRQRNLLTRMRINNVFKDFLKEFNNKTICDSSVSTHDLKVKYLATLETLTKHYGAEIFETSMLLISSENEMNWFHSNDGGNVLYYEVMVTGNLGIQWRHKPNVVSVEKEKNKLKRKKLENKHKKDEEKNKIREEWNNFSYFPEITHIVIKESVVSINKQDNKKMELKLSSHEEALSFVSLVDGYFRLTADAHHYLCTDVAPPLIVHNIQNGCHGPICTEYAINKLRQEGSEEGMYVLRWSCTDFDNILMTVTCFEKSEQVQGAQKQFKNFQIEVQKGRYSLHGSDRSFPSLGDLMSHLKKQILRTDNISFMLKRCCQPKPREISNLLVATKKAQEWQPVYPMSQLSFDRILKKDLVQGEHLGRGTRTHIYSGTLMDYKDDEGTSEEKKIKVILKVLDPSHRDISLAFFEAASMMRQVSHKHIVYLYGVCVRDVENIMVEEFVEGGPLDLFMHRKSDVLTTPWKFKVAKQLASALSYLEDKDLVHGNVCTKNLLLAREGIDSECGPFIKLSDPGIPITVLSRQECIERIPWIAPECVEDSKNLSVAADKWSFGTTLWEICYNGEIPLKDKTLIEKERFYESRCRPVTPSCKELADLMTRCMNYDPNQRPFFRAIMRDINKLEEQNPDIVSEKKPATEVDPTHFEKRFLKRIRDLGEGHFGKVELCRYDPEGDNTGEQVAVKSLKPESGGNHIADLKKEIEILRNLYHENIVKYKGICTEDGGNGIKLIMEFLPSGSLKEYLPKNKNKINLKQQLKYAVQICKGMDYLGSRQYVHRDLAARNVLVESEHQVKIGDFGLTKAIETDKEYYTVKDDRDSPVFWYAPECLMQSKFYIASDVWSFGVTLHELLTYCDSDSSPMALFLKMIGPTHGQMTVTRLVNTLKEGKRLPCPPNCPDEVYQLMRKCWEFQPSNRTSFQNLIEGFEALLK

SIK2 = SIK2 (Homo sapiens, UniProt Q9H0K1)
Sequence of SIK2 (Q9H0K1 whole entry): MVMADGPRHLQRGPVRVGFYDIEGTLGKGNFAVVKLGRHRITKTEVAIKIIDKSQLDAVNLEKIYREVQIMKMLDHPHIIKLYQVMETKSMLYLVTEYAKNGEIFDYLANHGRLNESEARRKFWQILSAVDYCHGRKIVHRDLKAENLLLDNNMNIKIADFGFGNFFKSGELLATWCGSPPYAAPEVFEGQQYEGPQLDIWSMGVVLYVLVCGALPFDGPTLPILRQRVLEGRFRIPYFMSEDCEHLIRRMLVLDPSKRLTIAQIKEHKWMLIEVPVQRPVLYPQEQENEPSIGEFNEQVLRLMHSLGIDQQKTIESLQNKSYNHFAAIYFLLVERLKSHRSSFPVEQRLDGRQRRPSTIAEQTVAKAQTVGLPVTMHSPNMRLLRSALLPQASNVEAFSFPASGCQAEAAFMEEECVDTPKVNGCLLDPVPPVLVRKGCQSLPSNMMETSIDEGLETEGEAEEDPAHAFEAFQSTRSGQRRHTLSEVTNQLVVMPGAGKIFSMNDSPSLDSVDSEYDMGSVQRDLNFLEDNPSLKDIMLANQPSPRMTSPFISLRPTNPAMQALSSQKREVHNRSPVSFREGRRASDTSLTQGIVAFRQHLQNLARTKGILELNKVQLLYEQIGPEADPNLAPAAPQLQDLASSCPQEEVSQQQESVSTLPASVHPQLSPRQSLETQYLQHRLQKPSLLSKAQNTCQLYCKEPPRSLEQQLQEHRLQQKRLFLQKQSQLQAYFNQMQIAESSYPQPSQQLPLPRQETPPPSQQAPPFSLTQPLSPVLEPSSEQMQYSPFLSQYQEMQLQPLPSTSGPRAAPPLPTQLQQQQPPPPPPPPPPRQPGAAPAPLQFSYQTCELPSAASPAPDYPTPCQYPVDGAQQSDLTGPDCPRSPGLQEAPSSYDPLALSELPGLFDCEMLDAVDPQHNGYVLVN

MAP3K2 = target: T1, MAP3K2 (Homo sapiens, UniProt Q9Y2U5)
T1 sequence (Q9Y2U5 1-619): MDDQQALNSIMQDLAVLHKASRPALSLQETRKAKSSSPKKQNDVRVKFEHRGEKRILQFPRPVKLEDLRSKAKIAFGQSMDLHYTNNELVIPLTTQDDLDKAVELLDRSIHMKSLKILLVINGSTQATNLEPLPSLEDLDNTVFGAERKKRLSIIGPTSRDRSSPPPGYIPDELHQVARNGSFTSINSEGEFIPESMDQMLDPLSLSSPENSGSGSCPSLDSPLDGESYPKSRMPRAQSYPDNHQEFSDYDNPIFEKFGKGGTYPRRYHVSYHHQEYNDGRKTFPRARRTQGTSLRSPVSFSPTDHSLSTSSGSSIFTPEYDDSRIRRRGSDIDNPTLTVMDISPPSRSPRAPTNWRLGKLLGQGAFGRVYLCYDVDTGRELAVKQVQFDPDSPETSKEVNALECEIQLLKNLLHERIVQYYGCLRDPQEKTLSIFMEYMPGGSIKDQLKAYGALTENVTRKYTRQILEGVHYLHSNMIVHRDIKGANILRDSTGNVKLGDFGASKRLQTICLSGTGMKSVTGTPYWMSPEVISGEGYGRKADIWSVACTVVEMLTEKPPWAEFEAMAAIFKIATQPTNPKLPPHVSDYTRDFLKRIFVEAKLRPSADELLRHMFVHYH

EPHB4 = target: T2, EPHB4 (Homo sapiens, UniProt P54760)
T2 sequence (P54760 1-987): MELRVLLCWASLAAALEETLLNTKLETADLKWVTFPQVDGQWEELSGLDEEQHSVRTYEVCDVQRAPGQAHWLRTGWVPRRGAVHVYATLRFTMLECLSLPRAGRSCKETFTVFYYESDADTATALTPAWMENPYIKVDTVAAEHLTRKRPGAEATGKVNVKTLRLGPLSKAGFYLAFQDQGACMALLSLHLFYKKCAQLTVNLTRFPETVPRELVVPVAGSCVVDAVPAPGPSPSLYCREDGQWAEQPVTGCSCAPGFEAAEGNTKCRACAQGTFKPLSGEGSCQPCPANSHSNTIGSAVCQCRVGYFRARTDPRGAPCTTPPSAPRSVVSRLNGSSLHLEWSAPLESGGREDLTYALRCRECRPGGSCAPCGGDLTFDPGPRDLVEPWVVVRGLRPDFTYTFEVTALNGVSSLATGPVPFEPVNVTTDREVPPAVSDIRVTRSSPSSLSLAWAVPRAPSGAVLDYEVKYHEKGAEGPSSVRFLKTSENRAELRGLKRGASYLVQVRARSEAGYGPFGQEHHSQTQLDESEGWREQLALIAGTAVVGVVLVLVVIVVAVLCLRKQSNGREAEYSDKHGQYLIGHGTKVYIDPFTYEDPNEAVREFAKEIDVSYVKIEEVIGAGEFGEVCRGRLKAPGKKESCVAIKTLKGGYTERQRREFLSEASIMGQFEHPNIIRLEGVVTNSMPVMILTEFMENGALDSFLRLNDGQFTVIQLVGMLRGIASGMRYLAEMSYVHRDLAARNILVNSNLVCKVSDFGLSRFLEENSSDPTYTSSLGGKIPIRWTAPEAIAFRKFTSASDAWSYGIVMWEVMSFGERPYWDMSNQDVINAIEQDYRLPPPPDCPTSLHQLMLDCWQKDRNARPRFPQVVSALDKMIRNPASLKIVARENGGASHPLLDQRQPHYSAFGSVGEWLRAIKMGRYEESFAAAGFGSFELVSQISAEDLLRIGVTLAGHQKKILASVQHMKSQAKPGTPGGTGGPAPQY

BUB1 = BUB1 (Homo sapiens, UniProt O43683)
Sequence of BUB1 (O43683 whole entry): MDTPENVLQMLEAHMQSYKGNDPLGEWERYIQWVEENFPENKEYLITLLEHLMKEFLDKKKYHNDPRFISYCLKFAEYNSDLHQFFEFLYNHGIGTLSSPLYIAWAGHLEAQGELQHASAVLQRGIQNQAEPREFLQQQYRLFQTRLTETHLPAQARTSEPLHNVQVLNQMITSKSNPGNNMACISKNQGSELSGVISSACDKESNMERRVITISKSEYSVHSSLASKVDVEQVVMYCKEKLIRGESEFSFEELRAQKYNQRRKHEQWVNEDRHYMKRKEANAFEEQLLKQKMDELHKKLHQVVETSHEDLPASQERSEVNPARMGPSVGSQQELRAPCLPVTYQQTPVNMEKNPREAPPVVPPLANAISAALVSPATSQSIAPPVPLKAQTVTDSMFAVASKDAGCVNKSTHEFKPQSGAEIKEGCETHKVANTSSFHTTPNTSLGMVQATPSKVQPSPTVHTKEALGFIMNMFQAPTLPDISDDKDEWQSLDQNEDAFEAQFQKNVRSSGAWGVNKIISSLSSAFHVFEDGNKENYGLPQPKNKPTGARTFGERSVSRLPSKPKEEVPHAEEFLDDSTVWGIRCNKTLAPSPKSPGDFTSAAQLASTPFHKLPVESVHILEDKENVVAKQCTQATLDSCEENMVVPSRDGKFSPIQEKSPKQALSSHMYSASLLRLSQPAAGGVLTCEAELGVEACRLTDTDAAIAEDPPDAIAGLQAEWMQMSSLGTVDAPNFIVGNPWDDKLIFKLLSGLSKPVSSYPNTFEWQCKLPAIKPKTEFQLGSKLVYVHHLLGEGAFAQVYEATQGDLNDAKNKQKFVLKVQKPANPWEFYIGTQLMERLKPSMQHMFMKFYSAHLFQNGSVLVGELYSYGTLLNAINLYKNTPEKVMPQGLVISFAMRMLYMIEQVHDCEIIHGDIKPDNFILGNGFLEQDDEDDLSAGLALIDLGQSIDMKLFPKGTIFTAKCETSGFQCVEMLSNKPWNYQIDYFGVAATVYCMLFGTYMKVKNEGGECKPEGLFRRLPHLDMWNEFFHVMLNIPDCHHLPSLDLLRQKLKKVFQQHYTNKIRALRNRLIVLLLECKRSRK

CSNK1D = CSNK1D (Homo sapiens, UniProt P48730)
Sequence of CSNK1D (P48730 whole entry): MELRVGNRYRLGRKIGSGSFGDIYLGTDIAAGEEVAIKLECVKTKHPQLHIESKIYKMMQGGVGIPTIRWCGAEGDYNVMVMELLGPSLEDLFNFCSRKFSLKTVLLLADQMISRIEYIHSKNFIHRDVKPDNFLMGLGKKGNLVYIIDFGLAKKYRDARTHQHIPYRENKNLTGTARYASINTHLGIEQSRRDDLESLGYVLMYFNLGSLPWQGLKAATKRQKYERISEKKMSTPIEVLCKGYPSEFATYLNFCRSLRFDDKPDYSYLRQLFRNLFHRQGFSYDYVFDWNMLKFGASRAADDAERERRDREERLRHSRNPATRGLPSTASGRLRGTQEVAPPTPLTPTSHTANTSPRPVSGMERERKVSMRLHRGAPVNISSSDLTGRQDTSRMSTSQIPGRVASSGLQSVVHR

| SMILES | Kd (TYK2) | Kd (JAK1) | Kd (SIK2) | Kd (MAP3K2) [nM] | Kd (EPHB4) [nM] | Kd (BUB1) | Kd (CSNK1D) |
| --- | --- | --- | --- | --- | --- | --- | --- |
| CN(C)CC(O)COc1ccc(Nc2ncc([N+](=O)[O-])c(Nc3ccccc3O)n2)cc1.O=C(O)C(F)(F)F (centres unmarked) [TCMDC-141399] | 677 nM | 272 nM and 346 nM |  |  |  |  |  |
| Cl.NCC1(c2nc(-c3ccc(Cl)c(O)c3)c(-c3ccncc3)[nH]2)CCCCC1 [TCMDC-141154] |  |  | 173 nM and 161 nM | 779 | 2600 | 82.5 nM and 58.4 nM | 44 nM and 50.4 nM |
| CN1CCN(c2ccc(Nc3ncc(C#N)c(Nc4ccccc4C(N)=O)n3)cc2)CC1.Cl [TCMDC-134116] | 35.6 nM and 32.8 nM | 13.1 nM and 19.5 nM | 10.6 nM | 318 | 2110 | 127 nM and 110 nM | 1150 nM |
